Experimental findings from patent US7550469B2, “Heterocyclic amide derivatives and their use as dopamine D3 receptor ligands” (Aventis Pharmaceuticals Inc., priority 2001, dated 2009) are described below.

For the first assay, the target named is T1, cloned human dopamine D3 receptors (Homo sapiens, UniProt P35462).
T1 construct: expressed in transfected cells; membrane homogenate
T1 sequence (P35462 whole entry): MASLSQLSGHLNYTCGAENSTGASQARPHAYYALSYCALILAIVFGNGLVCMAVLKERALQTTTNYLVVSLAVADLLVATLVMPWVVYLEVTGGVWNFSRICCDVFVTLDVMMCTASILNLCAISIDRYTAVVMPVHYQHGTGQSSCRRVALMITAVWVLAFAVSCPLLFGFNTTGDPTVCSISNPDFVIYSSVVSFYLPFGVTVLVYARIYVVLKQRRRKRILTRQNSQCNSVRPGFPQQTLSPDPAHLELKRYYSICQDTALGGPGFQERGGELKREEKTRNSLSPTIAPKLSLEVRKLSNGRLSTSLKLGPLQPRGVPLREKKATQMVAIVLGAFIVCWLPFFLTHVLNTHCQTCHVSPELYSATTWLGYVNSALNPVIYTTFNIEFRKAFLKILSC
As to the kind of experiment: [N-Methyl-3H]Spiroperidol binding to cloned human dopamine D3 receptors (Protocol 1). The note with it: Table 2; read-out: D3K1. The essentials: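 Radioligand displacement with [N-methyl-3H]spiroperidol used a physiological-salt Tris buffer (0.05 M, pH 7.7; NaCl 120 mM, KCl 5 mM, CaCl2 2 mM, MgCl2 1 mM) and membranes of a high-expressing stable CHO clone carrying human D3. Total ligand concentration came from measured added CPM; 0.1% ascorbic acid was optional for oxidizable compounds.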
Consider `O=C(NCCCN1CCCN(c2csc3cc(F)ccc23)CC1)c1cccc(Cl)c1` [compound 827135], for which the Ki amounted to 141 nM.
Still for that read-out and setting: the figure for `COc1cc(Br)cc2cc(C(=O)NCCCCN3CCCN(c4csc5cc(F)ccc45)CC3)oc12` [compound 827125] is 28.3 nM.
Still for that read-out and setting: the same measure for `NS(=O)(=O)c1cc(C(=O)NCCCCN2CCCN(c3csc4cc(F)ccc34)CC2)c(O)c2ccccc12` [compound 817265]: 46 nM; for `CC1=C(C(=O)NCCCCCN2CCN(c3csc4cc(C(F)(F)F)ccc34)CC2)Cc2ccccc21` [compound 826802]: 16.9 nM.
Still for that read-out and setting: the figure for `O=C(N[C@@H](CO)CCCN1CCN(c2csc3cc(C(F)(F)F)ccc23)CC1)c1cc2ccccc2o1` [compound 815677] is 297 nM.
Consider `CCOc1cccc2cc(C(=O)NCCCCN3CCCN(c4csc5cc(F)ccc45)CC3)oc12` [compound 827133], for which the Ki was determined as 12.6 nM.
Regarding `O=C(NCCCN1CCCN(c2csc3cc(F)ccc23)CC1)c1cccs1` [compound 827134], the Ki came out at 62 nM.
The same measure, in the same setting: the same measure for `O=C(NC/C=C\CN1CCN(c2csc3cc(C(F)(F)F)ccc23)CC1)C1(c2ccccc2)CC1` [compound 827736]: 173 nM.

The same assay, now with this note: read-out: D3K1.
Regarding `COc1ccc(C(=O)N[C@@H](CO)CCCN2CCN(c3csc4cc(C(F)(F)F)ccc34)CC2)cc1OC` [compound 815665], the Ki was determined as 163 nM.
Same read-out and setting: the same measure for `O=C(NCCCCN1CCN(c2c(Cl)sc3cc(C(F)(F)F)ccc23)CC1)c1ccccc1Br` [compound 815578]: 117 nM.
Still for that read-out and setting: the figure for `O=C(N[C@@H](CO)CCCN1CCN(c2csc3cc(C(F)(F)F)ccc23)CC1)c1cc2ccccc2o1` [compound 815677] is 297 nM; for `COc1ccccc1C(=O)NCCCCN1CCN(c2c(Cl)sc3cc(C(F)(F)F)ccc23)CC1` [compound 815574] it is 53 nM; for `O=C(NC/C=C/CN1CCN(c2csc3cc(C(F)(F)F)ccc23)CC1)c1cccc(C(F)(F)F)c1` [compound 827724] it is 120 nM.
As for `O=C(NC/C=C\CN1CCN(c2csc3cc(C(F)(F)F)ccc23)CC1)c1cccnc1` [compound 826336], the Ki came out at 41 nM.
As to `O=C(NCCCCN1CCN(c2c(Cl)sc3cc(F)ccc23)CC1)c1c(F)cc(F)cc1F` [compound 815054], the Ki is 7.7 nM.
The same measure, in the same setting: the figure for `O=C(NCCCCN1CCN(c2c(Cl)sc3cc(C(F)(F)F)ccc23)CC1)c1ccc(Cl)cc1` [compound 815568] is 30 nM.

Still in this assay, the particulars now being: the 13th table, unit inferred; read-out: D3Ki.
On to `O=C(NCCCCN1CCCN(c2csc3cc(F)ccc23)CC1)c1cccs1` [compound 822149], for which the Ki was 2.7 nM.
On to `Cc1nnsc1C(=O)NCCCCN1CCCN(c2csc3cc(C(F)(F)F)ccc23)CC1` [S980660], for which the Ki was 43.8 nM.
As to `O=C(NCCCCCN1CCC(c2noc3ccsc23)CC1)C(Cl)c1ccccc1` (stereo not drawn) [compound 816204], the Ki is 218 nM.
Take `O=C(NCCCCCN1CCCN(c2csc3cc(F)ccc23)CC1)c1csnn1` [S984498]: the Ki amounted to 39.5 nM.
On the same count and under the same terms, the same measure for `O=C(NCCCCCN1CCC(c2noc3ccsc23)CC1)c1ccc(Cl)cc1` [compound 816199]: 157 nM; for `COc1ccc2[nH]c(C(=O)NCCCCN3CCCN(c4csc5cc(F)ccc45)CC3)cc2c1` [S977820]: 1.05 nM; for `O=C(NCCCCCN1CCC(c2noc3ccsc23)CC1)C1CCCC1` [compound 816205]: 455 nM.
On the same count and under the same terms, the same measure for `CS(=O)(=O)c1sc(C(=O)NCCCCCN2CCCN(c3csc4cc(F)ccc34)CC2)c2c1CCC=C2` [S984496]: 8.44 nM; for `Cc1oc(-c2ccc(Cl)cc2)cc1C(=O)NCCCCN1CCCN(c2csc3cc(C(F)(F)F)ccc23)CC1` [S980663]: 96 nM; for `Cn1c(C(=O)NCCCCN2CCCN(c3csc4cc(F)ccc34)CC2)cc2ccccc21` [S977821]: 1.65 nM.
Still for that read-out and setting: the figure for `COc1ccc(C(=O)NCCCCN2CCCN(c3csc4cc(F)ccc34)CC2)cc1` [S981845] is 1.01 nM; for `O=C(NCCCCCN1CCCN(c2csc3cc(F)ccc23)CC1)c1cccs1` [S984485] it is 31.6 nM; for `O=C(NCCCCN1CCCN(c2csc3cc(C(F)(F)F)ccc23)CC1)c1cccnc1Cl` [S980646] it is 110 nM.

Staying with this assay, now noted: the 14th table; read-out: D3 Ki.
With `COc1ccc(C(=O)N[C@@H](CO)CCCN2CCN(c3csc4cc(C(F)(F)F)ccc34)CC2)cc1OC` [compound 815665], the Ki stood at 163 nM.
Still for that read-out and setting: the same measure for `CC1=C(C(=O)NCCCCCN2CCN(c3csc4cc(C(F)(F)F)ccc34)CC2)Cc2ccccc21` [compound 826802]: 16.9 nM; for `O=C(N[C@@H](CO)CCCN1CCN(c2csc3cc(C(F)(F)F)ccc23)CC1)c1cc2ccccc2o1` [compound 815677]: 297 nM.
Same read-out and setting: the same measure for `O=C(NCCCCCN1CCN(c2csc3cc(F)ccc23)CC1)c1cccs1` [compound 826774]: 8.25 nM; for `Cc1ccccc1C(=O)NCCCCCN1CCN(c2csc3cc(F)ccc23)CC1` [compound 826781]: 9.94 nM.

Staying with this assay, now noted: the 15th table; read-out: D3 Ki.
Consider `COc1ccccc1C(=O)NCCCCN1C2CCC1CC(c1noc3cc(F)ccc13)C2` (stereo not drawn) [compound 816343], for which the Ki amounted to 344 nM.
As for `CCCCCCc1ccc(C(=O)NCCCCN2C3CCC2CC(c2noc4cc(F)ccc24)C3)cc1` (stereo not drawn) [compound 816345], the Ki is 95.6 nM.
Consider `O=C(NCCCCN1C2CCC1CC(c1noc3cc(F)ccc13)C2)c1cccs1` (stereo not drawn) [compound 816323], for which the Ki was 832 nM.
`CSc1ncccc1C(=O)NCCCCN1C2CCC1CC(c1noc3cc(F)ccc13)C2` (stereo not drawn) [compound 816338]: the Ki came to 692 nM.

The same assay, now with this note: the 16th table; read-out: D3 Ki.
As to `O=C(NCCCN1CCCN(c2csc3cc(F)ccc23)CC1)c1cccc(Cl)c1` [compound 827135], the Ki was determined as 141 nM.
On the same count and under the same terms, the same measure for `COc1cc(Br)cc2cc(C(=O)NCCCCN3CCCN(c4csc5cc(F)ccc45)CC3)oc12` [compound 827125]: 28.3 nM; for `NS(=O)(=O)c1cc(C(=O)NCCCCN2CCCN(c3csc4cc(F)ccc34)CC2)c(O)c2ccccc12` [compound 817265]: 46 nM; for `CCOc1cccc2cc(C(=O)NCCCCN3CCCN(c4csc5cc(F)ccc45)CC3)oc12` [compound 827133]: 12.6 nM.
The same measure, in the same setting: the same measure for `O=C(NCCCN1CCCN(c2csc3cc(F)ccc23)CC1)c1cccs1` [compound 827134]: 62 nM.

Still in this assay, the particulars now being: the 17th table; read-out: D3 Ki.
Regarding `O=C(NCC1CC1CN1CCCN(c2csc3cc(F)ccc23)CC1)c1ccc(-c2ccccc2)cc1` (racemic) [compound 830406], the Ki is 27 nM.

The assay is the same for the next values; noted with them: the 18th table; read-out: D3 Ki.
Regarding `COc1cc(OC)cc(C(=O)NCc2sccc2CN2CCN(c3csc4cc(F)ccc34)CC2)c1` [compound 826297], the Ki was 31 nM.
On the same count and under the same terms, the same measure for `O=C(NCc1sccc1CN1CCN(c2csc3cc(F)ccc23)CC1)c1cccc(F)c1` [compound 826303]: 64 nM.

Still in this assay, the particulars now being: the 19th table; read-out: D3 Ki.
On to `O=C(Nc1ccc(CN2CCN(c3csc4cc(F)ccc34)CC2)cc1)c1ccccc1F` [compound 822207], for which the Ki worked out at 221 nM.
Consider `COc1cccc(C(=O)Nc2cccc(CN3CCN(c4csc5cc(F)ccc45)CC3)c2)c1` [compound 822181], for which the Ki was 332 nM.

The same assay, now with this note: the 21st table; read-out: D3 Ki.
On to `C[C@@H]1CN(c2csc3cc(F)ccc23)C[C@H](C)N1CCCCNC(=O)c1cccc(Cl)c1` [compound 827047], for which the Ki is 65.1 nM.
Regarding `C[C@@H]1CN(c2csc3cc(C(F)(F)F)ccc23)C[C@H](C)N1CCCCNC(=O)c1cnc2ccccc2n1` [compound 826935], the Ki is 268 nM.
On the same count and under the same terms, the figure for `C[C@@H]1CN(c2csc3cc(F)ccc23)C[C@H](C)N1CCCCNC(=O)c1cccc(F)c1` [compound 827053] is 53.9 nM; for `C[C@@H]1CN(c2csc3cc(C(F)(F)F)ccc23)C[C@H](C)N1CCCCNC(=O)c1ccc(-c2ccccc2)cc1` [compound 826933] it is 276 nM.
Same read-out and setting: the same measure for `C[C@@H]1CN(c2csc3cc(C(F)(F)F)ccc23)C[C@H](C)N1CCCCNC(=O)c1cc2ccccc2s1` [compound 827045]: 97.8 nM.

Still in this assay, the particulars now being: the 22nd table; read-out: D3 Ki.
In the case of `O=C(NCCCCN1CCN(c2noc3ccsc23)CC1)c1ccc(Cl)cc1` [compound 829675], the Ki is 38.9 nM.

Staying with this assay, now noted: the 23rd table; read-out: D3 Ki.
Regarding `FC(F)(F)c1ccc2c(N3CCN(CC4CC4CN4CCC(N5CCCC5)CC4)CC3)csc2c1` (racemic) [compound 832568], the Ki stood at 46.2 nM.
On to `FC(F)(F)c1ccc2c(N3CCN(C[C@@H]4C[C@H]4CNCCc4ccccc4)CC3)csc2c1` [compound 832322], for which the Ki is 227 nM.
Still for that read-out and setting: the figure for `FC(F)(F)c1ccc2c(N3CCN(C[C@@H]4C[C@H]4CN4CCC(n5ccnc5)CC4)CC3)csc2c1` [compound 833349] is 22.9 nM.
